Source: patent US20090317372A1, “SMALL MOLECULES FOR THE REDUCTION OF HIGH BLOOD GLUCOSE LEVEL” (priority 2008, published 2009)

Tests used:
Type in all cases: in vivo
C57/BL/6 mice [1] = assay: Glucose tolerance test with normal mice (CC1, CC3, CC19); conditions: for Reduction of blood glucose level: 30th min of test period
Protocol: C57/BL/6 female mice weighing 22-23-g and fasted for 14 hours before intraperitoneal (i.p.) administration of glucose (3-g/kg) were used. None of the animals received any food during the experiment other than glucose. The animals received i.p. injections of 4.5-mg/kg of CCcompound1, CCcompound3, or CCcompound19 either 1 hour or 24 hours prior to glucose administration as indicated in TABLE 3. Blood samples were taken from the eyes (canthus), and glucose concentrations in whole blood samples were immediately measured with the Fast Glucose C test. Each group included six animals. The data, shown in TABLE 3, are the mean±std. dev. of 6 determinations, i.e. one determination with each of the six animals. In this and all subsequent experiments the values at 0 min reflect glucose concentration in blood samples collected 1-5 minutes prior to the administration of glucose.

ob/ob mice [2] = assay: Blood glucose level of normally fed ob/ob obese diabetic mice, daily treatment; conditions: second experiment
From the text: Adult female leptin-deficient ob/ob obese diabetic inbred specified pathogen free (SPF) hygienic category mice from Charles River VRF1 were used for these experiments. The mice weighed 32-36-g at arrival. The ob/ob obese mouse is an extensively used animal model for the study of non-insulin-dependent-diabetes mellitus (NIDDM). The mutation was propagated in the C57BL/6J (BL/6) inbred strain. Homozygous obese (ob/ob) animals developed hyperglycemia due to insulin resistance, hyperinsulinemia (to compensate for reduced insulin action), and obesity. In these animals gluconeogenesis is enhanced despite their hyperinsulinemic state. The animals were kept in macrolon cages at 22-24° C. and 50-60% humidity, with lighting regimen of 12/12 h light dark. They had free access to tap water and were fed a sterilized standard diet (Charles River VRF1, autoclavable). The animals were cared for according to the “Guiding Principles for the Care and Use for Animals” based upon the Helsinki declaration. The ob/ob mice gained weight rapidly and developed a marked obesity by 5-6 weeks of age. […] When arrived they were 5 weeks old (when the experiment was performed with CCcompound1) or 4.5 weeks old (when the experiment was performed with CCcompound3 and CCcompound19). The treatments started 8 days later in the experiment performed with CCcompound1 and 10 days later in the experiment performed with CCcompound3 and CCcompound19. Experimental groups selected from ob/ob mice were injected subcutaneously (s.c.) at regular intervals once daily for 14 days with CCcompound1 or an analog (CCcompound3 or CCcompound19) each at the dose of 4.5-mg per kg. Control groups were also selected from ob/ob mice that remained untreated during the entire length of the experiment. In the first experiment, for which the data is presented in TABLE 11, blood samples were taken either 45 min or 6 hours after treatments with CCcompound1. In the second experiment, for which the data is presented in TABLE 12, blood samples were taken 45 min after treatments with the analogs of CCcompound1. Blood glucose was determined with the Fast Glucose C test. Both the untreated and CC compound-treated groups included 5 animals. The data are the mean±std. dev.

Wistar rats = assay: Glucose tolerance test in starved rats
Protocol: Male Wistar rats weighing 240-270-g were divided into 3 groups, each group consisting of 6 or 7 animals. To ensure standard conditions animals were starved for 14 hours before the start of the experiment. CCcompound1 and CCcompound3 were injected (i.p.) 30 min prior to injecting 3-g/kg of glucose (i.p.). Blood sugar values of the experimental animals were measured with the Fast Glucose C-test; blood samples were taken from the tail. The data are the mean±std. dev. of 6-7 determinations, i.e. one determination with each of the 6-7 animals in the respective groups.

C57/BL/6 mice [3] = assay: Glucose tolerance test with normal mice, CCcompound1 and sub-optimal insulin; conditions: CCcompound1 4.5-mg/kg i.p. 60 min and/or insulin 0.02 IU 15 min prior to glucose
Protocol: In this experiment, a sub-optimal dose of insulin (0.02 international unit-IU) was used to probe if CCcompound1 indeed can enhance the effect of insulin on blood glucose. Again C57/BL/6 female mice weighing 22-23-g and fasted for 14 hours prior to i.p. glucose administration (3-g/kg), were used. None of the animals received any food during the experiment other than glucose. The animals received i.p. injections of 4.5-mg/kg of CCcompound1 and/or 0.02 Unit insulin 60 min and 15 min prior to glucose administration, respectively. Blood samples were taken and glucose concentrations measured as indicated earlier. Each group included six animals. The data are the mean±std. dev. of 6 determinations, i.e. one determination with each of the six animals.

[4] = tested on: BDF1 (C57/BL/6 female×DBA/2 male) mice; assay: Glucose tolerance test with BDF1 mice, CCcompound1 and sub-optimal insulin; conditions: CCcompound1 4.5-mg/kg i.p. −15 min and/or insulin 0.02 IU −10 min
Protocol: In this experiment again, a sub-optimal dose of insulin was used to probe if CCcompound1 can enhance the effect of insulin on blood glucose. This time first generation hybrid BDF1 (C57/BL/6 female×DBA/2 male) adult (10-12 weeks old) male mice weighing 28-30-g and fasted for 14 hours before i.p. glucose administration (3-g/kg) were used. These mice were […] than mice in the previous experiment described under Example 5. None of the animals received any food during the experiment other than glucose. The animals received i.p. injections of 4.5-mg/kg of CCcompound1 and 0.02 IU of insulin 15 min and 10 min prior to glucose administration. Blood samples were taken and glucose concentrations in whole blood samples determined as described earlier. Each group included six animals. The data are the mean±std. dev. of 6 determinations, i.e. one determination with each of the six animals.

ob/ob mice [5] = assay: Blood glucose in ob/ob mice, CCcompound1 combined with human proteins AGP and TF
Protocol: For each experimental group, ob/ob mice were chosen (5 mice in each group) that were 43 days old and weighed on average 40.3±1.9-g on the first day of experiment. Three groups of mice were treated with s.c. injection of 4.5-mg/kg CCcompound1 once every day for 17 days. Mice in one of these CCcompound1-treated groups received no other treatment, and their blood was drawn for glucose analysis on day 14 and 17 exactly 45 min after treatment. The second CCcompound1-treated group also received 0.5-mg/mouse (˜11 mg/kg) dose of greater than 98% pure commercial human transferrin [catalogue number, T 3309 according to 2004/2005 Sigma catalogue]. In this second group the blood was drawn on day 14 just prior to TF administration and on day 17 two hours after TF and 45 min after CCcompound1 administration. An additional group of animals received only TF treatment. The third CCcompound1-treated group also received 1.2-mg/mouse (26.6-mg/kg) dose of >99% pure human AGP [catalogue number G 9885 according to 2004/2005 Sigma catalogue]; in this group the blood was drawn on day 14 just prior to AGP administration and on day 17 two hours and 45 minutes after administration of AGP and CCcompound1, respectively. An additional group of animals received only AGP treatment, and yet another group of animals received no treatment at all. On day 1, prior to any treatment, the blood glucose level of all animals was in the range of 7.2-7.9 mM.

C57/BL/6 mice [6] = assay: Glucose tolerance test with normal mice, PALP and CCcompound1 combined; conditions: PALP 0.4 mg/mouse i.p. −24 h
Protocol: Female C57/BL/6 mice weighing 24-26-g and fasted for 12 hours before i.p. glucose administration (3 g/kg) were used. None of the animals received any food during the experiment other than glucose. One group of animals was untreated while animals in other groups received subcutaneous (s.c.) injections of 2.0 or 4.5-mg/kg of CCcompound1 either 30 min or 60 min prior to glucose administration as indicated in TABLE 5. Two groups of animals received i.p. injections of 0.4-mg per mouse (˜16-mg per kg) of highly purified PALP 24 hours prior to glucose administration. Purification of PALP was described in detail earlier [Z. Kiss, U.S. Pat. No. 7,048,914, “Placental Alkaline Phosphatase to Control Diabetes]. Animals in one of the PALP treated group also received s.c. injections of 4.5-mg/kg of CCcompound1 30 min prior to glucose administration as indicated in TABLE 5. Blood samples were taken and glucose concentrations were immediately measured as described earlier. Each group included five animals. The data are the mean±std. dev. of 5 determinations, i.e. one determination with each of the five animals. “-min” and “-h” indicates the length of period in minutes and hours, respectively, elapsed between the administration of test agents (first) and glucose (second).

[7] = 4.5-mg/kg i.p. 1 h prior to glucose 3-g/kg i.p., 0 min
[8] = 4.5-mg/kg i.p. 1 h prior to glucose
[9] = 4.5-mg/kg i.p. 1 h prior to glucose, 30 min
[10] = 4.5-mg/kg i.p. 1 h prior to glucose, 60 min
[11] = 4.5-mg/kg i.p. 1 h prior to glucose, 120 min
[12] = 4.5-mg/kg i.p. 1 h prior to glucose, 180 min
[13] = 4.5-mg/kg s.c. once daily, 45 min after treatment, day 1
[14] = 4.5-mg/kg s.c. once daily, day 0
[15] = 14th day, CC1 4.5-mg/kg s.c. daily, 45 min after treatment, blood drawn just prior to AGP or TF administration
[16] = 17th day, 45 min after CC1 4.5-mg/kg s.c., two hours after TF 0.5-mg/mouse or AGP 1.2-mg/mouse

| Molecule | Blood glucose (C57/BL/6 mice [1]; [7]) [mM] | Reduction of blood glucose level (C57/BL/6 mice [1]; [8]) [%] | Blood glucose (C57/BL/6 mice [1]; [9]) [mM] | Blood glucose (C57/BL/6 mice [1]; [10]) [mM] | Blood glucose (C57/BL/6 mice [1]; [11]) [mM] | Blood glucose (C57/BL/6 mice [1]; [12]) [mM] | Blood glucose (ob/ob mice [2]; [13]) [mM] | Blood glucose (ob/ob mice [2]; [14]) [mM] | Blood glucose (ob/ob mice [2]; 45 min after treatment, day 5) [mM] | Blood glucose (ob/ob mice [2]; 45 min after treatment, day 10) [mM] | Blood glucose (ob/ob mice [2]; 45 min after treatment, day 15) [mM] | Blood glucose level (ob/ob mice [5]; [15]) [mM] | Blood glucose level (ob/ob mice [5]; [16]) [mM] | further results |
| --- | --- | --- | --- | --- | --- | --- | --- | --- | --- | --- | --- | --- | --- | --- |
| CC[N+](C)(CC)CCOCc1ccc2sc3ccccc3c(=O)c2c1 [CCcompound 3] | 1.7 ± 0.5 | 19 | 6.6 ± 0.3 | 5.0 ± 0.2 | 3.6 ± 0.5 | 2.7 ± 0.4 | 7.6 ± 0.7 | 9.1 ± 0.6 | 8.6 ± 0.9 | 11.0 ± 0.6 | 12.6 ± 0.5 |  |  | Blood glucose (Wistar rats; rats starved 14 h, i.p. 30 min prior to glucose 3-g/kg i.p., 0 min): 4.73 ± 0.24 mM; Blood glucose (Wistar rats; rats, i.p. 30 min prior to glucose, 30 min): 9.36 ± 0.43 mM; Blood glucose (Wistar rats; rats, i.p. 30 min prior to glucose, 60 min): 6.66 ± 0.33 mM; Blood glucose (Wistar rats; rats, i.p. 30 min prior to glucose, 90 min): 5.71 ± 0.38 mM; Blood glucose (Wistar rats; rats, i.p. 30 min prior to glucose, 120 min): 5.43 ± 0.60 mM |
| Insulin: insulin, sub-optimal dose 0.02 IU [reference compound] |  |  |  |  |  |  |  |  |  |  |  |  |  | Blood glucose (C57/BL/6 mice [3]; 0 min): 2.1 ± 0.6 mM; Blood glucose (C57/BL/6 mice [3]; 30 min): 7.2 ± 0.4 mM; Blood glucose (C57/BL/6 mice [3]; 60 min): 5.6 ± 0.5 mM; Blood glucose (C57/BL/6 mice [3]; 120 min): 3.8 ± 0.4 mM; Blood glucose ([4]; 0 min): 3.1 ± 0.4 mM; Blood glucose ([4]; 30 min): 6.4 ± 0.5 mM; Blood glucose ([4]; 60 min): 5.6 ± 0.3 mM |
| C[N+](C)(C)CCC=C1c2ccccc2Sc2ccccc21.[I-] [CCcompound 19, N,N,N-trimethyl-3-(9H-thioxanthen-9-ylidene)-propane-1-aminium iodide] | 2.1 ± 0.5 | 23 | 5.7 ± 0.4 | 4.6 ± 0.6 | 3.1 ± 0.2 | 2.2 ± 0.4 | 6.2 ± 0.9 | 9.3 ± 0.7 | 7.7 ± 0.5 | 9.3 ± 0.9 | 10.4 ± 1.0 |  |  |  |
| AGP: >99% pure human α1-acid glycoprotein, Sigma G 9885 |  |  |  |  |  |  |  |  |  |  |  | 16.0 ± 0.5 | 12.4 ± 0.6 |  |
| TF: greater than 98% pure commercial human transferrin, Sigma T 3309 |  |  |  |  |  |  |  |  |  |  |  | 15.8 ± 0.4 | 13.6 ± 0.7 |  |
| PALP: highly purified placental alkaline phosphatase (protein, UniProt P05187 23-506, looked up) Alkaline phosphatase, …: IIPVEEENPDFWNREAAEALGAAKKLQPAQTAAKNLIIFLGDGMGVSTVTAARILKGQKKDKLGPEIPLAMDRFPYVALSKTYNVDKHVPDSGATATAYLCGVKGNFQTIGLSAAARFNQCNTTRGNEVISVMNRAKKAGKSVGVVTTTRVQHASPAGTYAHTVNRNWYSDADVPASARQEGCQDIATQLISNMDIDVILGGGRKYMFRMGTPDPEYPDDYSQGGTRLDGKNLVQEWLAKRQGARYVWNRTELMQASLDPSVTHLMGLFEPGDMKYEIHRDSTLDPSLMEMTEAALRLLSRNPRGFFLFVEGGRIDHGHHESRAYRALTETIMFDDAIERAGQLTSEEDTLSLVTADHSHVFSFGGYPLRGSSIFGLAPGKARDRKAYTVLLYGNGPGYVLKDGARPDVTESESGSPEYRQQSAVPLDEETHAGEDVAVFARGPQAHLVHGVQEQTFIAHVMAFAACLEPYTACDLAPPAGTTD |  |  |  |  |  |  |  |  |  |  |  |  |  | Blood glucose (C57/BL/6 mice [6]; 0 min): 3.7 ± 0.5 mM; Blood glucose (C57/BL/6 mice [6]; 30 min): 6.8 ± 0.3 mM; Blood glucose (C57/BL/6 mice [6]; 60 min): 5.3 ± 0.4 mM; Blood glucose (C57/BL/6 mice [6]; 120 min): 4.3 ± 0.5 mM |
